# pEC50: −log10 of the molar value.
# What was measured:
# [1] = system: SOD1^G93A‐expressing PC12 cell; conditions: in vitro potency; read-out: EC50 (protein aggregation/toxicity); cited from earlier work
# [2] = system: UMNs in the motor cortex of WT‐UeGFP mice; experiment: UMN quantification in motor cortex, WT‐UeGFP mice; assay type: in vivo
# Protocol: (§1) hSOD1^G93A‐UeGFP, prpTDP‐43^A315T‐UeGFP and WT‐UeGFP mice were weighed and the required NU‐9 dose per weight was calculated (20 or 100 mg/kg), which was administered once daily by oral gavage, starting at postnatal day (P)60 and continuing until P120. Animals from the untreated group received the vehicle (NMP and olive oil) only. For oral administration purposes, 20 ga × 38 mm plastic feeding tubes were used (Instech Laboratories, Inc). The gavage tip was inserted into the mouth directly over the tongue and into the pharynx. While observing the swallowing reflex, the tip was safely and smoothly slid into the esophagus. Once the administration was completed, the gavage tip was pulled straight out.
# Since UMNs are genetically labeled with eGFP expression in the motor cortex of WT‐UeGFP, hSOD1^G93A‐UeGFP, and prpTDP‐43^A315T‐UeGFP mice, UMNs were identified based on the GFP expression. Quantitative analyses were performed on three matched rostrocaudal sections spanning the motor cortex. Three images per subject were taken to capture a 4× objective filed that encompass layer 5 of the motor cortex. An inverted epifluorescent Eclipse TE2000‐E microscope (Nikon) with the same exposure time and intensity was used. UMNs were counted only if their soma and apical dendrite were both visualized in the same 50‐µm thick section. Images were analyzed in ImageJ (NIH) using the Find maxima processing command to determine the local maxima within a predetermined region of interest that circumscribes the layer 5 of the motor cortex. A universal noise tolerance, which ignores the local maxima corresponding to background and autofluorescence, was applied to all images.
# [3] = system: LMNs in the lumbar spinal cord of hSOD1^G93A‐UeGFP mice; experiment: Lower motor neuron (LMN) quantification in lumbar spinal cord, hSOD1^G93A‐UeGFP mice; assay type: in vivo; conditions: for Mean, Fig. 8E (LMN quantification in lumbar spinal cord) / Mean, Fig. 8F (LMN quantification in lumbar spinal cord) / Mean, Fig. 8G (LMN quantification in lumbar spinal cord): hSOD1G93A-UeGFP mice; for number of LMNs per section, lumbar spinal cord / number of NeuN^+/ChAT^+ LMNs (vulnerable to degeneration): hSOD1^G93A‐UeGFP mice, P120
# Protocol: as §1
# A 5‐mm block of lumbar spinal cord was sectioned in 50‐µm thick sections with a vibratome (Leica), and every other section was used for immunohistochemical analysis. LMNs were identified based on their location in the ventral horn and expression of the molecular marker ChAT. 10× Images were captured using an inverted epifluorescent Eclipse TE2000‐E microscope (Nikon). GFP^+/ChAT^+ and NeuN^+/ChAT^+ LMNs were quantified per section. The average number of LMNs per section is reported per mouse with n = 5 mice per group.
# [4] = system: UMNs of hSOD1^G93A‐UeGFP mice; experiment: EM quantification of mitochondria and ER in UMNs, hSOD1^G93A‐UeGFP mice; assay type: in vivo
# Protocol: as §1
# Mice were perfused with EM grade 4% PFA. One hemisphere of the brain was sectioned at 50 µm thickness coronally on a vibratome (Leica VT1000S, Leica Inc., Nussloch, Germany). The sections were postfixed in 2% PFA and 0.5% glutaraldehyde for 1 h, they were cryoprotected with glycerol–dimethylsulfoxide (DMSO) mixture followed by freeze–thaw at least four times, and treated with 1% sodium borohydride. They were then treated with 0.3% H2O2–10% methanol in TBS (100 mM Tris–HCl and 150 mM NaCl, pH 7.6) and 5% normal goat serum–1% bovine serum albumin in TBS to block nonspecific binding of primary antibody. This mixture was incubated overnight with rat anti‐Ctip2 antibody (1:500, Thermo Fisher Scientific, Rockford, IL, USA). Biotinylated goat anti‐rat IgG (1:500, Vector Laboratories, Burlingame, CA, USA) was used as the secondary antibody, and diaminobenzidine (DAB) was applied as the chromogen (ABC Elite kit, Vector Laboratories, Burlingame, CA, USA). Sections were then postfixed in buffered 2% osmium tetroxide (OsO4) (Electron Microscopy Sciences, Hatfield, PA, USA), rinsed with distilled water, and stained in 1% uranyl acetate (Electron Microscopy Sciences, Hatfield, PA, USA), again rinsed with distilled water, dehydrated in ascending grades of ethanol with transition fluid propylene oxide (Electron Microscopy Sciences, Hatfield, PA, USA), embedded in the resin mixture with Embed 812 (Electron Microscopy Sciences, Hatfield, PA, USA), and cured in a 60°C oven for 3 days. The sections in which primary motor cortex was present and visible under bright‐field illumination on a dissecting scope were selected. Approximately, 5‐mm‐wide × 7‐mm‐long pieces of the motor cortex from these sections were dissected under the microscope mounted on a resin block and were sectioned on a Leica Ultracut UC6 ultramicrotome (Leica Inc., Nussloch, Germany). The motor cortex was further trimmed, and only layer 5 was kept intact for preparing ultrathin sections. UMNs were identified based on the presence of Ctip2 immunohistochemistry (DAB) in their nuclei (Figure S1). Seventy‐nanometer‐thin sections were collected on 200‐mesh copper–palladium grids. Grids were counterstained with 8% radioactive depleted uranyl acetate and 0.2% lead citrate. Grids were examined on FEI Tecnai Spirit G2 TEM (FEI company, Hillsboro, OR, USA), and digital images were captured on a FEI Eagle camera.
# EM images of Betz cells of normal control and patients, Ctip2‐positive (Ctip2^+) UMN of WT, and hSOD1^G93A‐UeGFP and prpTDP‐43^A315T‐UeGFP mice (Figure S1) were acquired from 70‐nm ultrathin sections of the motor cortex, and EM images were taken on FEI Tecnai Spirit G2 TEM using FEI Eagle camera. Mitochondria were quantified, as described previously. ^34 Mitochondria with intact outer and inner membrane and with intact cristae were considered healthy. Mitochondria with morphological defects, such as broken outer and/or inner membrane and cristae, were counted individually and were reported as percentage of defective mitochondria. ER that are disintegrated and that display profound expansion were considered unhealthy. Length of ER cisternae was measured using line tool of ImageJ software (NIH) upon calibration for pixels/micrometer using set scale function. […]
# [5] = WT-UeGFP mice, NU-9 100 mg/kg/day
# [6] = WT-UeGFP vehicle minus NU-9 100 mg/kg/day, Tukey's multiple comparisons test
# [7] = hSOD1G93A-UeGFP vehicle minus NU-9 20 mg/kg/day, Tukey's multiple comparisons test
# [8] = hSOD1G93A-UeGFP vehicle minus NU-9 100 mg/kg/day, Tukey's multiple comparisons test
# [9] = hSOD1G93A-UeGFP (NU-9 100 mg/kg/day)
# [10] = hSOD1^G93A‐UeGFP mice, 100 mg/kg/day oral gavage P60–P120, at P120
smiles,measurement,setting,value
C[C@H](Oc1cc(C(F)(F)F)cc(C(F)(F)F)c1)C1CC(=O)CC(=O)C1 [NU‐9],pEC50,[1],6.52
same,"Mean, Fig. 5E (UMN quantification in motor cortex)",[2]; [5],65.5
same,"Mean, Fig. 7H (UMN quantification in motor cortex)",[2]; [5],65.5
same,"Mean Diff., Fig. 5E, G Vehicle vs. G NU-9 (100)",[2]; [6],-6.183
same,"Mean Diff., Fig. 7H, G Vehicle vs. G NU-9 (100)",[2]; [6],-6.183
same,average number of UMNs per section in the motor cortex,"[2]; WT‐UeGFP mice, 100 mg/kg/day oral gavage P60–P120",66 ± 1 UMNs
same,"Mean, Fig. 8E (LMN quantification in lumbar spinal cord)",[3]; NU-9 20 mg/kg/day,12.11
same,"Mean, Fig. 8F (LMN quantification in lumbar spinal cord)",[3]; NU-9 20 mg/kg/day,6.506
same,"Mean, Fig. 8G (LMN quantification in lumbar spinal cord)",[3]; NU-9 20 mg/kg/day,18.62
same,"Mean, Fig. 8E (LMN quantification in lumbar spinal cord)",[3]; NU-9 100 mg/kg/day,9.708
same,"Mean, Fig. 8F (LMN quantification in lumbar spinal cord)",[3]; NU-9 100 mg/kg/day,4.426
same,"Mean, Fig. 8G (LMN quantification in lumbar spinal cord)",[3]; NU-9 100 mg/kg/day,14.13
same,"Mean Diff., Fig. 8E, GS Vehicle vs. GS NU-9 (20)",[3]; [7],-1.853
same,"Mean Diff., Fig. 8F, GS Vehicle vs. GS NU-9 (20)",[3]; [7],0.3602
same,"Mean Diff., Fig. 8G, GS Vehicle vs. GS NU-9 (20)",[3]; [7],-1.493
same,"Mean Diff., Fig. 8E, GS Vehicle vs. GS NU-9 (100)",[3]; [8],0.5524
same,"Mean Diff., Fig. 8F, GS Vehicle vs. GS NU-9 (100)",[3]; [8],2.44
same,"Mean Diff., Fig. 8G, GS Vehicle vs. GS NU-9 (100)",[3]; [8],2.992
same,"number of LMNs per section, lumbar spinal cord",[3]; 20 mg/kg/day,18.6 ± 0.4 LMN
same,number of NeuN^+/ChAT^+ LMNs (vulnerable to degeneration),[3]; 20 mg/kg/day,12.1 ± 0.4 LMN
same,"number of LMNs per section, lumbar spinal cord",[3]; 100 mg/kg/day,14.1 ± 1.3 LMN
same,number of NeuN^+/ChAT^+ LMNs (vulnerable to degeneration),[3]; 100 mg/kg/day,9.7 ± 0.9 LMN
same,numbers of GFP^+ and ChAT^+ LMN (resistant to degeneration),[3]; regardless of genotype or treatment,comparable
same,Fig. 2O group mean (total number of mitochondria/UMN),[4]; [9],21.13
same,Fig. 2P group mean (percentage of healthy mitochondria/UMN),[4]; [9],86.3
same,Fig. 2R group mean (average length of ER cisternae/UMN),[4]; [9],1.136
same,average length of ER cisternae,[4]; [10],1.13 ± 0.1 µm
same,number of healthy ER cisternae,[4]; [10],14 ± 2 ER cisternae/UMN/section
same,percentage of healthy mitochondria in UMNs,[4]; [10],86% ± 3%
same,total number of mitochondria in UMNs,[4]; [10],21 ± 2 mitochondria/UMN/section

# — PMC7898037, “Improving mitochondria and ER stability helps eliminate upper motor neuron degeneration that occurs due to mSOD1 toxicity and TDP‐43 pathology” (Clinical and Translational Medicine, 2021)
